In patent publication US9850227B2 (YUHAN CORPORATION, priority 2011, dated 2017):

Target: T1, human 5-HT4(a) (Homo sapiens, UniProt Q13639)
T1 construct: host or cells: GeneBIAzer HTR4-CRE-bla CHO-K1 cells
Assay: Evaluation of agonistic activity in CHO-K1 cells expressing human 5-HT4(a) (GeneBIAzer HTR4-CRE-bla CHO-K1 cells, beta-lactamase fluorescence ratio, EC50 from 8 concentrations)
Format: cell-based
Experimental: Evaluation of Agonistic Activity in CHO-K1 Cells Expressing Human 5-HT4(a)
As CHO-K1 cells stably expressing human 5-HT4(a), we used the GeneBIAzer HTR4-CRE-bla CHO-K1 cells (Invitrogen Corp.). The cells were cultured, under the condition of 37° C. and 5% CO2, in a DMEM supplemented with 10% fetal bovine serum (FBS), 25 mM HEPES (pH7.4), 600 μg/ml hygromycin B, 0.1 mM non-essential amino acids, 100 unit/ml penicillin and 100 μg/ml streptomycin. Subcultures were performed three times per one week, each being at less than 80% confluence. At the previous day before treating test compounds, the cells were collected using 0.5% trypsin/EDTA and then diluted with a DMEM supplemented with 1% FBS, 25 mM HEPES, and 0.1 mM non-essential amino acids into 3.125×10^5 cells/ml. 32 μl of the diluted cells were added into 384-well plate (10^4 cells per well) and then incubated overnight. After the overnight culture, 8 μl of the medium having 1% of DMSO was added into the cell-free control well and the non-stimulating control well, respectively. 8 μl of the respective test compound dilutions (which had been prepared by diluting by 100-times with the medium as mentioned in the above) having 1% of DMSO were added to the respective remaining wells. After being cultured in the incubator for 5 hours, the wells of the 384-plate were treated with the substrate solution (8 μl per well) prepared according to the vendor's instruction (i.e., Invitrogen's instruction), and then incubated in the dark room for additional two hours. Agonistic activities on 5-HT4 receptor were evaluated, on the basis of fluorescence values of the cleavage-products by beta-lactamase. After exciting to 410 nm of wavelength using a fluorescence detector (Genios Pro), we measured the fluorescence values at two emission wavelengths (first wavelength: 465 nm, second wavelength: 535 nm). Data were analyzed on the basis of the ratio of fluorescence intensities of each well at the respective wavelengths. Each EC50 value was calculated by non-linear regression analysis using the “GraphPad Prism” program, based on the activities according to 8-different concentrations of the test compounds.

T1 sequence (Q13639 1-387 isoform Q13639-2): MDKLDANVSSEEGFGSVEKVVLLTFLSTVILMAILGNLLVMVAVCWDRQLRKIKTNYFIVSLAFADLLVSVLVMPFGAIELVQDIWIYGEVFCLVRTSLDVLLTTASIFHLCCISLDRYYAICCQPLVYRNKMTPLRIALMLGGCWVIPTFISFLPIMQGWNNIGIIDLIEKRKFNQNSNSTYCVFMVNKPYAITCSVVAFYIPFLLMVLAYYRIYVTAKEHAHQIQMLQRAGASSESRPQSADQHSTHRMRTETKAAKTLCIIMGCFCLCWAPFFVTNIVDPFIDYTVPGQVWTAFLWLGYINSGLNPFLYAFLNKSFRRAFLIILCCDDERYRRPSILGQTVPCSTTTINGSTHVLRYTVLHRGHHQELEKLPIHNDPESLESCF

Row | Structure (SMILES) | EC50 [nM]
1 | CCCc1cc(N2CCCC3CCCCC32)nc(Nc2cccc(C#N)c2)n1 (stereo not shown) [Example 187, 3-[4-(octahydroquinolin-1(2H)-yl)-6-propylpyrimidin-2-ylamino]benzonitrile] | 0.24
2 | CCCc1cc(N2CCCC3CCCCC32)nc(Nc2cccc([N+](=O)[O-])c2)n1 (stereo not shown) [Example 188, N-(3-nitrophenyl)-4-(octahydroquinolin-1(2H)-yl)-6-propylpyrimidin-2-amine] | 0.43
3 | CCCc1cc(N2CCCC3CCCCC32)nc(Nc2ccc(F)c([N+](=O)[O-])c2)n1 (stereo not shown) [Example 189, N-(4-fluoro-3-nitrophenyl)-4-(octahydroquinolin-1(2H)-yl)-6-propylpyrimidin-2-amine] | 0.32
4 | CCCc1cc(N2CCCC3CCCCC32)nc(Nc2ccc(Cl)c([N+](=O)[O-])c2)n1 (stereo not shown) [Example 190, N-(4-chloro-3-nitrophenyl)-4-(octahydroquinolin-1(2H)-yl)-6-propylpyrimidin-2-amine] | 0.46
5 | CCCc1cc(N2CCCC3CCCCC32)nc(Nc2cccc(OC)c2)n1 (stereo not shown) [Example 191, N-(3-methoxyphenyl)-4-(octahydroquinolin-1(2H)-yl)-6-propylpyrimidin-2-amine] | 0.34
6 | CCCc1cc(N2CCCC3CCCCC32)nc(Nc2cccc(SC)c2)n1 (stereo not shown) [Example 198, N-(3-methylthiophenyl)-4-(octahydroquinolin-1(2H)-yl)-6-propylpyrimidin-2-amine] | 0.4
7 | CCCc1cc(N2CCCC3CCCCC32)nc(Nc2ccc3[nH]c(C(F)(F)F)nc3c2)n1 (stereo not shown) [Example 200, N-[4-(octahydroquinolin-1(2H)-yl)-6-propylpyrimidin-2-yl]-2-(trifluoromethyl)-1H-benzo[d]imidazol-5-amine] | 0.18
8 | CCCc1cc(N2CCCC3CCCCC32)nc(Nc2cnc3ccccc3c2)n1 (stereo not shown) [Example 203, N-[4-(octahydroquinolin-1(2H)-yl)-6-propylpyrimidin-2-yl]quinolin-3-amine] | 0.14
9 | CCCCCN[C@@H]1CCCN(c2cc(CCC)nc(Nc3ccc(C)c(C#N)c3)n2)C1 [Example 208, (R)-2-methyl-5-{4-[3-(pentylamino)piperidin-1-yl]-6-propylpyrimidin-2-ylamino}benzonitrile] | 0.029
10 | CCCc1cc(N2CCC[C@@H](NCC(C)(C)C)C2)nc(Nc2ccc(C)c(C#N)c2)n1 [Example 211, (R)-2-methyl-5-{4-[3-(neopentylamino)piperidin-1-yl]-6-propylpyrimidin-2-ylamino}benzonitrile] | 0.023
11 | CCCc1cc(N2CCC[C@@H](NCc3cccs3)C2)nc(Nc2ccc(C)c(C#N)c2)n1 [Example 214, (R)-2-methyl-5-(4-propyl-6-{3-[(thiophen-2-ylmethyl)amino]piperidin-1-yl}pyrimidin-2-ylamino)benzonitrile] | 0.072
12 | CCCc1cc(N2CCC[C@@H](NCc3cc(C)c(C)o3)C2)nc(Nc2ccc(C)c(C#N)c2)n1 [Example 215, (R)-5-(4-{3-[(4,5-dimethylfuran-2-ylmethyl)amino]piperidin-1-yl}-6-propylpyrimidin-2-ylamino)-2-methylbenzonitrile] | 0.064
13 | CCCc1cc(N2CCC[C@@H](NCCCSC)C2)nc(Nc2ccc(C)c(C#N)c2)n1 [Example 216, (R)-2-methyl-5-{4-[3-(3-methylthiopropylamino)piperidin-1-yl]-6-propylpyrimidin-2-ylamino}benzonitrile] | 0.016
14 | CCCc1cc(N2CCC[C@@H](NCC3CC3)C2)nc(Nc2ccc(C)c(C#N)c2)n1 [Example 217, (R)-5-{4-[3-(cyclopropylmethylamino)piperidin-1-yl]-6-propylpyrimidin-2-ylamino}-2-methylbenzonitrile] | 0.013

The next lines start with the values.

Row | EC50 [nM] | Structure (SMILES)
15 | 0.035 | CCCc1cc(N2CCCCC2CCO)nc(Nc2ccc(N)c(C(F)(F)F)c2)n1 (stereo not shown) [Example 175, 2-{1-[2-(4-amino-3-trifluoromethylphenylamino)-6-propylpyrimidin-4-yl]piperidin-2-yl}ethanol]
16 | 0.018 | CCCc1cc(N2CCCCC2CCO)nc(Nc2ccc(N)c([N+](=O)[O-])c2)n1 (stereo not shown) [Example 176, 2-{1-[2-(4-amino-3-nitrophenylamino)-6-propylpyrimidin-4-yl]piperidin-2-yl}ethanol]
17 | 0.049 | CCCc1cc(N2CCCCC2CCO)nc(Nc2ccc(C)c(C#N)c2)n1 (stereo not shown) [Example 177, 5-{4-[2-(2-hydroxyethyl)piperidin-1-yl]-6-propylpyrimidin-2-ylamino}-2-methylbenzonitrile]
18 | 0.082 | CCCc1cc(N2CCCCC2CCO)nc(Nc2ccc(F)c(C#N)c2)n1 (stereo not shown) [Example 178, 2-fluoro-5-{4-[2-(2-hydroxyethyl)piperidin-1-yl]-6-propylpyrimidin-2-ylamino}benzonitrile]
19 | 0.027 | CCCc1cc(N2CCCCC2CCO)nc(Nc2ccc(N)c(C#N)c2)n1 (stereo not shown) [Example 179, 2-amino-5-{4-[2-(2-hydroxyethyl)piperidin-1-yl]-6-propylpyrimidin-2-ylamino}benzonitrile]
20 | 0.153 | CCCc1cc(N2CCCCC2CCO)nc(Nc2ccc(C)c(N)c2)n1 (stereo not shown) [Example 180, 2-{1-[2-(3-amino-4-methylphenylamino)-6-propylpyrimidin-4-yl]piperidin-2-yl}ethanol]
21 | 0.025 | CCCc1cc(N2CCCCC2CCO)nc(Nc2ccc(F)c(N)c2)n1 (stereo not shown) [Example 181, 2-{1-[2-(3-amino-4-fluorophenylamino)-6-propylpyrimidin-4-yl]piperidin-2-yl}ethanol]
22 | 0.022 | CCCc1cc(N2CCCCC2CCO)nc(Nc2ccc(Cl)c(N)c2)n1 (stereo not shown) [Example 182, 2-{1-[2-(3-amino-4-chlorophenylamino)-6-propylpyrimidin-4-yl]piperidin-2-yl}ethanol]
23 | 0.008 | CCCc1cc(N2CCC[C@@H](NCC)C2)nc(Nc2ccc(C)c(C#N)c2)n1 [Example 205, (R)-5-{4-[3-(ethylamino)piperidin-1-yl]-6-propylpyrimidin-2-ylamino}-2-methylbenzonitrile]
24 | 0.0087 | CCCN[C@@H]1CCCN(c2cc(CCC)nc(Nc3ccc(C)c(C#N)c3)n2)C1 [Example 206, (R)-5-{4-[3-(propylamino)piperidin-1-yl]-6-propylpyrimidin-2-ylamino}-2-methylbenzonitrile]
25 | 0.013 | CCCCN[C@@H]1CCCN(c2cc(CCC)nc(Nc3ccc(C)c(C#N)c3)n2)C1 [Example 207, (R)-5-{4-[3-(butylamino)piperidin-1-yl]-6-propylpyrimidin-2-ylamino}-2-methylbenzonitrile]
26 | 0.015 | CCCc1cc(N2CCC[C@@H](NCC(C)C)C2)nc(Nc2ccc(C)c(C#N)c2)n1 [Example 209, (R)-5-{4-[3-(isobutylamino)piperidin-1-yl]-6-propylpyrimidin-2-ylamino}-2-methylbenzonitrile]
27 | 0.022 | CCCc1cc(N2CCC[C@@H](NCCC(C)C)C2)nc(Nc2ccc(C)c(C#N)c2)n1 [Example 210, (R)-5-{4-[3-(isopentylamino)piperidin-1-yl]-6-propylpyrimidin-2-ylamino}-2-methylbenzonitrile]
28 | 0.1 | CCCc1cc(N2CCC[C@@H](NC(C)C)C2)nc(Nc2ccc(C)c(C#N)c2)n1 [Example 212, (R)-5-{4-[3-(isopropylamino)piperidin-1-yl]-6-propylpyrimidin-2-ylamino}-2-methylbenzonitrile]
